Drawing on ChEMBL document CHEMBL1142595, “Spirolides isolated from Danish strains of the toxigenic dinoflagellate Alexandrium ostenfeldii” (J Nat Prod, 2006), this text covers MLD for one molecule.

For the series, the system named is Mus musculus. As to the kind of experiment: Toxicity in ip dosed mouse. The series is classed as organism-based. The conditions noted are these: in vivo.

`C=C1CCCC2=NCC(C)C(C)CC23CCC(C2C=C(C)C(=O)O2)=C(C)C3/C=C(\C)C(O)CC2CCC3(CCC4(OC(CCC4O)C1)O3)O2` (stereo unspecified) yielded an MLD of 0.03 mg/kg.
